Measurements from patent publication US20250066423A1, “SESTRIN-MAPK COMPLEX INHIBITORS” (Sentcell Ltd, priority 2021, published 2025).
Peptide text beside a SMILES is read from it.

Legend:
[1] = tested on: telomere extension in T cells exposed to APCs; assay: Telomere length quantification assay (qPCR); assay type: cell-based, human; settings: 5 donors
From the text: FIG. 23 illustrates live transfer of telomeres from APC to T cells in the presence of DOS. (A, left): T cells showing baseline fluorescence in the channel of Tel C; (A, middle): T cells treated with DOS cultured with APC; (A, right): T cells co-cultured with APC, in the absence of DOS. DOS enhances telomere transfer by ˜2 fold. Representative of 3 experiments. (B): Telomere extension was quantified by qPCR. Synapse-driven telomere extension (Akb) in T cells exposed to APCs and treated with or without DOS46L. Results from 5 donors are shown. […] Mann-Whitney was used. *p<0.05.
• 1. CD4− and CD4+ cells were purified from PBMC using appropriate microbead kit (Miltenyi) • 2. CD4+ cells were then used to purify CD27− and CD28− cells by using Miltenyi purification kits. • 3. A pellet of CD4− and CD4+/CD27−/CD28− cells were frozen. • 4. 4*10^6 CD4− were mixed with 1*10^6 CD4+/CD27−/CD28− cells in presence or not of DOS 46L 10 μM. • 14. The mixed cells were stimulated o.n. with a mix 1:1 of CMV and EBV • 15. The day after, CD4− cells were detached from conjugates with CD4+/CD27−/CD28− cells with a syringe by using cold PBS • 5. CD4− were then purified from CD4+ cells by using Miltenyi purification kits. • 16. CD4− and CD4+ cell pellets post conjugate were then frozen. • 17.

H1N1 PR8/54 = tested on: H1N1 PR8/54; design: species or system mice; settings: mouse, in vivo
[2] = tested on: influenza specific antibody titres; assay type: in vivo; settings: old mice, single dose along with the vaccine, 2, 4 and 8 weeks after vaccination, versus young mice
Sestrin 2 = target: T1, Sestrin 2 (Homo sapiens, UniProt P58004); assay: Proteasomal degradation and ubiquitination of sestrin 2 (MG-132 pre-treatment, immunoprecipitation, immunoblot); assay type: cell-based; design: endogenous in cells; host or cells: primary CD4+ T cells from PBMCs of healthy donors
T1 sequence (P58004 1-480): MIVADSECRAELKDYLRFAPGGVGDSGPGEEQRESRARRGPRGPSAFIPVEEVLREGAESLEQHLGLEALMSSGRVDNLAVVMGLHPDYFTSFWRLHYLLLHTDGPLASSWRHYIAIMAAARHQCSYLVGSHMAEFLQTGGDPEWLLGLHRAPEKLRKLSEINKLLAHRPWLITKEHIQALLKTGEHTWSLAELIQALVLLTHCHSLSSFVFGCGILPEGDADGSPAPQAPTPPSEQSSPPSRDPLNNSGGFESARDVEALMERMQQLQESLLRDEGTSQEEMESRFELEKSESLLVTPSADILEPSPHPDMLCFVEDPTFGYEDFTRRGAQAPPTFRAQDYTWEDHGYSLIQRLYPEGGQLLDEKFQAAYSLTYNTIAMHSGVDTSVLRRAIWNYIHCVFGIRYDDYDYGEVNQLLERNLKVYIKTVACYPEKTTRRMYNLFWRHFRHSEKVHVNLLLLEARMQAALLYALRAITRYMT
Protocol: (§1) FIG. 6 illustrates sMAC disruption by DOS46L. (A) CD4+ T cells were purified from PBMCs from healthy donors and treated with DOS46L (10 uM) for the indicated time points. The binding of AMPK to Sestrin 2 was quantified against the total level of Sestrin 2 immunoprecipitated and detected by ELISA. IgG immunoprecipitates served as background control. (B) Cells were pre-treated with proteasome-inhibitor MG-132 (10 uM) for 30 min and subsequently treated with DOS46L (10 uM) for 4 hours. Cells were harvested for immunoblot analysis or proceeded to immunoprecipitation. Levels of Sestrin 2, p38, and AMPK were evaluated by immunoblotting. H3 was used as a loading control. Representative images of 3 experiments are shown. (C) Immunoblot levels of Ubiquitin, Sestrin 2 and Histone 3 in Sestrin 2 immunoprecipitates and their lysates were analysed. Representative images are shown (top). The mean values (bottom) of ubiquitinated proteins in Sestrin 2 immunoprecipitates are shown. Results are presented as a mean±SD of 4 repeated experiments. Student's T-test was used to analyse the data. **p<0.01
(§2) • 1. Cell pellet was lysed with 100 μL of denaturing lysis buffer • 2. Then mixed well by vortexing vigorously for 2-3 sec at maximum speed. • 3. Samples were then boiled at 95° C. for 5 min. • 4. Samples were then diluted 900 μl of non-denaturing lysis buffer and mixed gently. • 5. […]

sestrin-AMPK interaction = target: T2, sestrin-AMPK interaction (Homo sapiens, UniProt P58004); assay: ELISA coupled to sestrin 2 immunoprecipitation; assay type: cell-based
T2 construct: endogenous in cells; host or cells: primary CD4+ T cells from PBMCs of healthy donors
T2 sequence (P58004 1-480): T1 sequence (P58004 1-480)
Protocol: as §1, §2

SMILES: CC[C@H](C)[C@@H]1NC(=O)[C@H](Cc2ccccc2)NC(=O)[C@H](C)NC(=O)[C@H](C(C)C)NC(=O)[C@@H]2CCCN2C1=O [DOS46L] (cyclo(AFIPV))
- synapse-driven telomere extension [1]: restoration in telomere length is similar to the extension observed in young T cells
- protection from lethal viral challenge without vaccine (H1N1 PR8/54): prevented death
- influenza specific antibody titres [2]: completely restored
- inhibition of sestrin and AMPK after proteasome inhibitor pre-treatment (Sestrin 2; MG-132 10 uM 30 min, then DOS46L 10 uM 4 hours): vanished
- ubiquitinated sestrin 2 immunoprecipitated (Sestrin 2; T cells exposed to DOS46L 10 uM, 4 hours): increased amount
- binding of AMPK to Sestrin 2 (sestrin-AMPK interaction; CD4+ T cells, 10 uM, 1 or 2 hours of treatment): decreased
- sestrin-AMPK interaction (sestrin-AMPK interaction; compound added directly to the sestrin immunoprecipitates in vitro): disrupted
